The test system of one series is healthy volunteers. The experiment in a line: Safety and tolerability, drug-drug interaction part. Type of series: in vivo, human. The conditions noted are these: n = 14; for TRAE, Acetaminophen-related: acetaminophen 1000 mg; for TRAE, Rosuvastatin-related: rosuvastatin 10 mg. How it is done:
This phase 1, randomized, double-blind, placebo-controlled study (NCT06036784) enrolled healthy adults (aged 18-65 years) with a body mass index of 18 to 30 kg/m^2, stable body weight for 3 months or longer, and without diabetes. Potential participants were ineligible if they had type 1 or type 2 diabetes or prediabetes (based on medical history, relevant concomitant medications [including oral or injectable antidiabetic medications], fasting plasma glucose concentrations ≥100 mg/dL or glycated hemoglobin concentrations ≥5.7% [American Diabetes Association thresholds for diabetes and prediabetes ([18])]).
(§1) The DDI portion of the study included 1 cohort of 14 HVs and consisted of 2 study periods. […] Blood samples were also collected to measure clearance of the endogenous biomarker for hepatic OATP inhibition, coproporphyrin-I (CP-I), to assess potential inhibition of OATP1B1/3 by imapextide. […] The primary objective of the DDI portion was to evaluate the PK of rosuvastatin and acetaminophen in the presence and absence of imapextide.
The primary objective of the SAD and MAD portions of the study was to evaluate the safety and tolerability of imapextide; safety was also evaluated in the DDI portion. Safety assessments included incidence and severity of treatment-emergent adverse events (TEAEs), changes in physical examination findings, clinical laboratory abnormalities (serum chemistry, hematology, urinalysis, and coagulation; abnormalities were defined as deviation from the laboratory normal range), and potential effect on vital sign measures. All blood samples for safety analyses were collected after an overnight fast (≥8 hours). If present, data on ISRs were collected using a dedicated form and rated on severity according to the US Food and Drug Administration toxicity scale for vaccines (for details on severity grading, see Supplementary Table S1) ([20], [21]). All ISRs were evaluated, regardless of whether they were reported as TEAEs by the investigator. In the 30-mg-R cohort, participants with ISRs grade 2 or worse underwent a dermatology consultation, including a potential skin biopsy at the discretion of the dermatologist.

In another series the test system is OATP1B1/OATP1B3. The experiment in a line: Drug-drug interaction: rosuvastatin PK in presence or absence of imapextide. Type of series: in vivo, human. To be noted: plasma, n = 14, statistic in brackets not given.
From the text: as §1
Imapextide was also examined as a perpetrator of OATP1B1/3, which would affect the hepatic clearance of rosuvastatin and CP-I. PK assessments for rosuvastatin included Cmax, tmax, AUC from 0 to 72 hours (AUC0-72), and AUCinf. PK assessments for CP-I included Cmax, tmax, AUC0-72, and AUC from 0 to 108 hours (AUC0-108).

Setting [1] is: DDI Period 2 (RBX + APAP + Imapextide 45 mg).
Where [2] appears, read: Period 1 (RBX 10 mg + APAP 1000 mg), no imapextide.
Setting [3] is: Period 2 (RBX 10 mg + APAP 1000 mg + imapextide 45 mg given 2 days before).

Molecules are shown by their SMILES.

As to `CC(=O)Nc1ccc(O)cc1` [Acetaminophen, acetaminophen], the “TRAE, Acetaminophen-related” value in the series with healthy volunteers (DDI Period 1 (RBX + APAP)) and in the series with healthy volunteers (setting [1]) was 0 n (%) in each case.

As to `CC(C)c1nc(N(C)S(C)(=O)=O)nc(-c2ccc(F)cc2)c1/C=C/[C@@H](O)C[C@@H](O)CC(=O)O` [Rosuvastatin, rosuvastatin], in the series on healthy volunteers (DDI Period 1 (RBX + APAP)), the “TRAE, Rosuvastatin-related” value is given as 0 n (%). The “TRAE, Rosuvastatin-related” value in the series with healthy volunteers (setting [1]) is on record as 0 n (%). Further, in the series with OATP1B1/OATP1B3 (setting [2]), the AUC0-72 is recorded as 27,660 (56.1) h*pg/mL, the AUC0-inf is given as 36,090 (50.3) h*pg/mL, the Cmax is 2307 (85.1) pg/mL and the tmax was 2.80 (84.7) h. Moreover, in the series on OATP1B1/OATP1B3 (setting [3]), the AUC0-72 is reported as 31,730 (48.3) h*pg/mL, the AUC0-inf is listed as 32,490 (49.4) h*pg/mL, the Cmax is 2962 (61.9) pg/mL and the tmax is given as 2.72 (38.1) h.

The record behind these values is PMC13183420, “Sustained Action of Imapextide, A Glucagon-Like Peptide-1 Receptor Antagonist, in Healthy Volunteers” (The Journal of Clinical Endocrinology and Metabolism, 2025).
